Legend:
Experiment in all cases: relative viability (nuclei count vs DMSO), 5 days (fraction); higher = more cells survive
Tosedostat + Navitoclax = compound: CC(C)C[C@@H](C(=O)N[C@H](C(=O)OC1CCCC1)c1ccccc1)[C@H](O)C(=O)NO [Tosedostat] + CC1(C)CCC(c2ccc(Cl)cc2)=C(CN2CCN(c3ccc(C(=O)NS(=O)(=O)c4ccc(N[C@H](CCN5CCOCC5)CSc5ccccc5)c(S(=O)(=O)C(F)(F)F)c4)cc3)CC2)C1 [Navitoclax] (partner 0.5 µM)
In short: (§1)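 For relative viability, nuclei counts in treated wells were divided by those in vehicle wells. Lung cancer cell lines had been pin-tool dosed in 1536-well plates the day after seeding and cultured for 5 days, then fixed and stained in one step (final 0.05% Triton X-100, 1% formaldehyde, 1 ug/ml Hoechst) and imaged at 4×. Doses were one drug alone or a fixed anchor-drug dose plus five library-drug doses (not always all listed) in √10 steps, and values are duplicate-plate medians.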

Tosedostat + Foretinib = compound: CC(C)C[C@@H](C(=O)N[C@H](C(=O)OC1CCCC1)c1ccccc1)[C@H](O)C(=O)NO [Tosedostat] + COc1cc2c(Oc3ccc(NC(=O)C4(C(=O)Nc5ccc(F)cc5)CC4)cc3F)ccnc2cc1OCCCN1CCOCC1 [Foretinib] (partner 0.25 µM)
In short: as §1

[1] = compound: CC1=NN=C(O1)C2=NN=C(C=C2)N3CCC(CC3)OC4=C(C=CC(=C4)F)Cl
In short: (§2)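 Five library-drug doses, separated by factors of √10, were pinned into 1536-well plates holding lung cancer cell lines after an overnight stay at 37 °C. Cells were fixed, permeabilised and Hoechst-stained in one step after 5 days without medium change, then imaged at 4×. Viability compares treated-well with vehicle-well nuclei, counted in MetaXpress, as a median across plates. Passing plates had control CV below 25% and at least one doubling.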

Tosedostat = compound: CC(C)C[C@@H](C(=O)N[C@H](C(=O)OC1CCCC1)c1ccccc1)[C@H](O)C(=O)NO [Tosedostat]
In short: as §2

Cell Line	relative viability (Tosedostat + Navitoclax; first compound 0.02 µM)	relative viability (Tosedostat + Navitoclax; first compound 0.06325 µM)	relative viability (Tosedostat + Navitoclax; first compound 0.2 µM)	relative viability (Tosedostat + Navitoclax; first compound 0.6325 µM)	relative viability (Tosedostat + Navitoclax; first compound 2 µM)	relative viability (Tosedostat + Foretinib; first compound 0.02 µM)	relative viability (Tosedostat + Foretinib; first compound 0.06325 µM)	relative viability (Tosedostat + Foretinib; first compound 0.2 µM)	relative viability (Tosedostat + Foretinib; first compound 0.6325 µM)	relative viability (Tosedostat + Foretinib; first compound 2 µM)	relative viability ([1]; 0.253 µM)	relative viability ([1]; 0.8 µM)	relative viability ([1]; 2.53 µM)	relative viability ([1]; 8 µM)	relative viability (Tosedostat; 0.02 µM)	relative viability (Tosedostat; 0.06325 µM)	relative viability (Tosedostat; 0.2 µM)	relative viability (Tosedostat; 0.6325 µM)	relative viability (Tosedostat; 2 µM)
PC-3 [JPC-3]	0.85	0.837	0.825	0.678	0.638	1.01	1.02	0.997	0.778	0.65	0.85	0.805	0.896	0.926	1.08	1.13	1.04	0.933	0.641
RERF-LC-KJ	1.03	0.953	0.948	0.517	0.614	0.851	0.912	0.77	0.884	0.8	0.653	0.628	0.652	0.647	0.953	1.03	0.944	0.888	0.876
NCI-H1793	0.402	0.463	0.402	0.449	0.4	0.559	0.789	0.742	0.629	0.637	0.877	0.776	1.02	0.755	0.815	0.88	0.92	0.913	0.79
NCI-H1915	0.801	0.775	0.783	0.743	0.711	1.13	1.1	1.14	1.05	0.947	0.607	0.341	0.497	0.407	1.15	0.949	0.998	0.988	0.891
NCI-H1299	1.09	1.03	1.04	1.02	0.948	1.15	1.14	1.14	1.04	0.966	0.961	0.9	0.892	0.852	1.09	0.995	0.985	0.968	0.939
H3255	0.464	0.546	0.404	0.388	0.471	0.871	0.902	1.02	0.709	0.796	0.662	0.688	0.635	0.727	0.994	0.869	0.94	0.852	0.886
201T	1.19	1.24	1.29	1.32	1.28	1.11	1.24	1.22	1.32	1.17	0.481	0.523	0.553	0.503	1	1	1.02	1.06	1.01
NCI-H2405	1.18	0.846	0.82	0.812	0.611	1.03	1.02	1.07	1.02	0.932	0.577	0.495	0.553	0.525	1.16	1	0.991	0.95	0.92
HOP-62	1.19	1	1.01	1.02	0.914	1.27	1.09	1.09	1.02	1	0.77	0.529	0.707	0.587	1.12	0.977	0.932	0.945	0.9
CAL-12T	1.27	1.13	1.19	1.16	0.965	1.15	1.04	1.22	1.11	1.05	0.935	0.859	0.821	0.742	1.16	0.948	1.03	0.892	0.784
NCI-H727	0.369	0.295	0.386	0.282	0.195	0.908	0.622	–	0.602	0.487	0.817	0.728	0.981	0.785	0.914	0.899	0.696	0.819	0.95
NCI-H1993	0.895	0.877	0.817	0.747	0.603	0.72	0.565	0.793	0.675	0.534	0.772	0.864	0.954	0.833	1	0.958	0.847	0.631	0.703
NCI-H2228	1	0.856	0.781	0.961	0.793	0.998	0.774	1.11	0.768	0.751	0.904	0.921	0.979	0.834	1.22	1.1	0.881	0.837	0.686
NCI-H2126	0.801	0.876	0.894	0.852	0.721	1.12	1.27	1.25	1.07	1.12	0.832	0.869	0.928	0.864	0.976	1.01	1.01	0.903	0.865
